Structures are written as SMILES.

The first test concerns the target T1, human GPR139 (Homo sapiens, UniProt Q6DWJ6).
T1 construct: expressed in transfected cells; host or cells: CHO-TREx (Life Technologies) cells, expression induced with doxycycline
T1 sequence (Q6DWJ6 1-353): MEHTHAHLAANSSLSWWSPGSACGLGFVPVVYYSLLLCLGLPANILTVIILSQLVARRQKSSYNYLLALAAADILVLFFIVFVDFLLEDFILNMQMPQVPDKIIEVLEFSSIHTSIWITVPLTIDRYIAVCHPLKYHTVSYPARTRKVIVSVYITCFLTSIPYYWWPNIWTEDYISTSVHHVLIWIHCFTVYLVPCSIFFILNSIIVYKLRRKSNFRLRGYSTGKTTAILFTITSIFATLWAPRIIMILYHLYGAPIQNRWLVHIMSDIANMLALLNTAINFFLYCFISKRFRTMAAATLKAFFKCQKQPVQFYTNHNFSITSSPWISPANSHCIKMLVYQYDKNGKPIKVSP
The experiment in a line: Inhibition rate of the amount of IP1 in GPR139-expressed CHO cells (Test Example 1, IP-ONE HTRF assay).
Settings: not given
In kind it is cell-based. The protocol:
Measurement of the Inhibition Rate of the Amount of IP1 in 30 μM of the Compound of Example 2 in GPR139-Expressed CHO Cells
Changes in the amount of IP1 in GPR139-expressed CHO cells were measured in order to evaluate the activity of the compound via GPR139. GPR139 is a Gq-coupled receptor which varies intracellular calcium (Liu C et al., Mol Pharmacol. 2015 November; 88(5):911-25), so the amount of IP1, which is a stable metabolite of the second messenger IP3, changes due to activity regulation of GPR139. GPR139 is considered to be […] when expressed recombinantly in mammal cells, so a compound having a GPR139 receptor inverse agonist action is expected to reduce the amount of IP1 production.
The measurement of IP1 was made using an IP-ONE HTFR assay kit (cis-bio) and CHO-TREx (Life Technologies) cells stably transfected with GPR139. The CHO-TREx cells expressed human GPR139 with a tetracycline-inducing element. […]
The compound was diluted with the stimulation buffer, and 4 μL was added to a 384-well white assay plate (Greiner). […] After the fluorescence strengths of two wavelengths were measured by the HTRF settings of Envision (PerkinElmer), the value of Ratio={(Signal 665 nm)/(Signal 615 nm)}×10000 was calculated.
For orientation: In TR-FRET formats the signal depends on donor and acceptor labels being close together.
`CCn1cc(Cn2ccn(-c3cc(N4CCO[C@H](C)C4)cc(C(F)(F)F)c3F)c2=O)cn1` [Example 2, 1-[(1-Ethyl-1H-pyrazole-4-yl)methyl]-3-{2-fluoro-5-[(2R)-2-methylmorpholine-4-yl]-3-(trifluoromethyl)phenyl}-1,3-dihydro-2H-imidazole-2-one]: the “GPR139 receptor inverse agonist action (result in words)” value is given as “exhibits GPR139 receptor inverse agonist action”.

For the next test, the target named is T1, human GPR139. The experiment in a line: Inhibition rate of the amount of IP1 in GPR139-expressed CHO cells (inverse agonist assay, Test Example 2). In kind it is cell-based. The settings on record: CHO, relative value, inhibition rate of Example Compound 2 in Test Example 1 defined as 100%. The method, boiled down: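 IP1 accumulation read by IP-One HTRF after 40 min compound exposure at 37° C in stimulation buffer, 2000 cells/well, GPR139 expression induced the day before with doxycycline. Results given as relative inhibition rate, normalised to a reference compound set at […].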
What is called inhibition is the relative decrease from the control value, in per cent. In the case of `CCn1cc(Cn2ccn(-c3cc(N4CCO[C@H](C)C4)cc(C(F)(F)F)c3F)c2=O)cn1` [Example 2, 1-[(1-Ethyl-1H-pyrazole-4-yl)methyl]-3-{2-fluoro-5-[(2R)-2-methylmorpholine-4-yl]-3-(trifluoromethyl)phenyl}-1,3-dihydro-2H-imidazole-2-one], the inhibition at 30 µM stood at 100%.

In the case of `CCn1cc(Cn2c(C)c(C)n(-c3cc(N4CCOC(F)(F)C4)cc(C(F)(F)F)c3)c2=O)cn1` [Example 63, 1-[3-(2,2-difluoromorpholin-4-yl)-5-(trifluoromethyl)phenyl]-3-[(1-ethyl-1H-pyrazol-4-yl)methyl]-4,5-dimethyl-1,3-dihydro-2H-imidazol-2-one], the inhibition at 30 µM amounted to 100%.

Take `CCn1cc(Cn2ccn(-c3nc(NCC4(F)CCC4)cc(C(F)(F)F)c3F)c2=O)cn1` [Example 121, 1-[(1-ethyl-1H-pyrazol-4-yl)methyl]-3-[3-fluoro-6-{[(1-fluorocyclobutyl)methyl]amino}-4-(trifluoromethyl)pyridin-2-yl]-1,3-dihydro-2H-imidazol-2-one]: the inhibition at 30 µM was found to be 101%.

As to `CCn1cc(Cn2cc(C)n(-c3cc(Br)cc(N4CCOC(C)(C)C4)c3)c2=O)cn1` [Example 137, 3-[3-bromo-5-(2,2-dimethylmorpholin-4-yl)phenyl]-1-[(1-ethyl-1H-pyrazol-4-y)methyl]-4-methyl-1,3-dihydro-2H-imidazol-2-one], the inhibition at 30 µM is 98%.

Take `CCn1cc(Cn2c(C)cn(-c3nc(N4CCO[C@H](C)C4)cc(C(F)(F)F)c3C)c2=O)cn1` [Example 45, 3-[(1-ethyl-1H-pyrazol-4-yl)methyl]-4-methyl-1-{3-methyl-6-[(2R)-2-methylmorpholin-4-yl]-4-(trifluoromethyl)pyridin-2-yl}-1,3-dihydro-2H-imidazol-2-one]: the inhibition at 30 µM turned out to be 101%.

With `CCn1cc(Cn2ccn(-c3cc(N(C)C4CCOCC4)cc(C(C)(C)O)c3F)c2=O)cn1` [Example 113, 1-[(1-ethyl-1H-pyrazol-4-yl)methyl]-3-{2-fluoro-3-(2-hydroxypropan-2-yl)-5-[methyl(oxan-4-yl)amino]phenyl}-1,3-dihydro-2H-imidazol-2-one], the inhibition at 30 µM worked out at 103%.

Consider `CCn1cc(Cn2c(C)cn(-c3cc(N4CCC(F)(F)CC4)cc(C4CC4)c3F)c2=O)cn1` [Example 165, 1-[3-cyclopropyl-5-(4,4-difluoropiperidin-1-yl)-2-fluorophenyl]-3-[(1-ethyl-1H-pyrazol-4-yl)methyl]-4-methyl-1,3-dihydro-2H-imidazol-2-one], for which the inhibition at 30 µM was 97%.

On to `Cc1nn(-c2cc(N3CCC(F)(F)C3)cc(C(F)(F)F)c2F)c(=O)n1Cc1cnn(C(C)C)c1` [Example 94, 2-[5-(3,3-difluoropyrrolidin-1-yl)-2-fluoro-3-(trifluoromethyl)phenyl]-5-methyl-4-{[1-(propan-2-yl)-1H-pyrazol-4-yl]methyl}-2,4-dihydro-3H-1,2,4-triazol-3-one], for which the inhibition at 30 µM was found to be 99%.

For `CCn1cc(Cn2cc(C)n(-c3cc(OCC(F)(F)F)cc(N(C)C4CCOCC4)c3)c2=O)cn1` [Example 88, 1-[(1-ethyl-1H-pyrazol-4-yl)methyl]-4-methyl-3-{3-[methyl(oxan-4-yl)amino]-5-(2,2,2-trifluoroethoxy)phenyl}-1,3-dihydro-2H-imidazol-2-one], the inhibition at 30 µM amounted to 99%.

With `CCn1cc(Cn2ccn(-c3cc(-c4ccc(F)cc4)cc(C(F)(F)F)c3)c2=O)cn1` [Example 1, 1-[(1-Ethyl-1H-pyrazole-4-yl)methyl]-3-[4′-fluoro-5-(trifluoromethyl)[1,1′-biphenyl]-3-yl]-1,3-dihydro-2H-imidazole-2-one], the inhibition at 30 µM was determined as 99%.

Turning to `CCn1cc(Cn2c(C)cn(-c3cc(N4CCC(F)(F)CC4)cc(Cl)c3F)c2=O)cn1` [Example 167, 1-[3-chloro-5-(4,4-difluoropiperidin-1-yl)-2-fluorophenyl]-3-[(1-ethyl-1H-pyrazol-4-yl)methyl]-4-methyl-1,3-dihydro-2H-imidazol-2-one], the inhibition at 30 µM is 97%.

Take `CCn1cc(Cn2ccn(-c3nc(N4CCO[C@H](C)C4)cc(C(F)(F)F)c3C)c2=O)cn1` [Example 42, 1-[(1-ethyl-1H-pyrazol-4-yl)methyl]-3-{3-methyl-6-[(2R)-2-methylmorpholin-4-yl]-4-(trifluoromethyl)pyridin-2-yl}-1,3-dihydro-2H-imidazol-2-one]: the inhibition at 30 µM was 99%.

On to `CCn1cc(Cn2cc(C)n(-c3cc(N4CCO[C@H](C)C4)cc(C(F)(F)F)c3Cl)c2=O)cn1` [Example 82, 3-{2-chloro-5-[(2R)-2-methylmorpholin-4-yl]-3-(trifluoromethyl)phenyl}-1-[(1-ethyl-1H-pyrazol-4-yl)methyl]-4-methyl-1,3-dihydro-2H-imidazol-2-one], for which the inhibition at 30 µM came to 100%.

Regarding `CCn1cc(Cn2cc(C)n(-c3cc(-n4cnc(C)c4)cc(C(F)(F)F)c3)c2=O)cn1` [Example 21, 1-[(1-ethyl-1H-pyrazol-4-yl)methyl]-4-methyl-3-[3-(4-methyl-1H-imidazol-1-yl)-5-(trifluoromethyl)phenyl]-1,3-dihydro-2H-imidazol-2-one], the inhibition at 30 µM stood at 99%.

As for `CCn1cc(Cn2ccn(-c3cc(N4CCOC(C)(C)C4)cc(C(F)(F)F)c3F)c2=O)cn1` [Example 12, 1-[5-(2,2-dimethylmorpholin-4-yl)-2-fluoro-3-(trifluoromethyl)phenyl]-3-[(1-ethyl-1H-pyrazol-4-yl)methyl]-1,3-dihydro-2H-imidazol-2-one], the inhibition at 30 µM amounted to 98%.

Staying with this test, now noted: relative value, inhibition rate of Example Compound 2 in Test Example 1 defined as 100%, 30 µM.
`CCn1cc(Cn2cc(C)n(-c3cc(C(F)(F)F)cc(OCC4CCCO4)n3)c2=O)cn1` (centres unmarked) [Example 108, 1-[(1-ethyl-1H-pyrazol-4-yl)methyl]-4-methyl-3-{6-[(oxolan-2-yl)methoxy]-4-(trifluoromethyl)pyridin-2-yl}-1,3-dihydro-2H-imidazol-2-one]: the “Inhibition Rate at 30 μM” value was determined as 102%.

Values taken from patent US12630534B2 (TAKEDA PHARMACEUTICAL COMPANY LIMITED, priority 2020, dated 2026).
